Assay results reported in patent US12145947B2, “Pyrimidine based modulators and uses thereof” (Quanta Therapeutics, Inc., priority 2022, dated 2024).

What follows are compounds tested against T1, KRAS G12D/RAF1 (Homo sapiens, UniProt P01116, G12D) (assay: Protein-protein interaction (PPI) HTRF assay KRAS G12D/RAF1). Conditions: Table 4.
T1 construct: His6-MBP (N, cleaved yes); made in house; host or cells: E. coli
T1 sequence (P01116 with tags, fused parts or gaps isoform P01116-2 G12D): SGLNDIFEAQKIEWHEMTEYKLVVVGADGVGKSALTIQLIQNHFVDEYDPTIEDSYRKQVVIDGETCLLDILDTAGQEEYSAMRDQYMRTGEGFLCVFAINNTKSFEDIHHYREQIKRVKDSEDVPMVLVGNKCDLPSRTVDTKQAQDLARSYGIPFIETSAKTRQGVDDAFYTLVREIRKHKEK
Type: binding
Procedure, shortened: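 Biotinylated human KRAS (1-169; wt, G12D, G12V) or wt NRAS, GppNHp-loaded, pre-incubated 30 min RT with compound and streptavidin-d2, then His-RAF1 RBD (52-131) with anti-6His Tb cryptate added for 1 h RT. HTRF 665/615 ratio normalized to no compound (0%) and untagged RAF1 (100%); IC50.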
With `Cn1nccc1COc1nc(N2C[C@H]3CC[C@@H](C2)N3)c(C#N)c(N2CC3(CCc4sc(N)c(C#N)c43)C2)n1` [Compound 97, 2-amino-1′-[5-cyano-2-[(2-methylpyrazol-3-yl)methoxy]-6-[(1R,5S)-3,8-diazabicyclo[3.2.1]octan-3-yl]pyrimidin-4-yl]spiro[5,6-dihydrocyclopenta[b]thiophene-4,3′-azetidine]-3-carbonitrile] the IC50 was 10000 to 100000 nM.
`N#Cc1c(N2C[C@H]3CC[C@@H](C2)N3)nc(OC[C@@]23CCCN2C[C@H](F)C3)nc1N1CC2(C1)c1c(sc(N)c1C#N)CC1CC12` (stereo partly drawn) [Compound 99, 2-amino-1′-[5-cyano-6-[(1R,5S)-3,8-diazabicyclo[3.2.1]octan-3-yl]-2-[[(2R,8S)-2-fluoro-1,2,3,5,6,7-hexahydropyrrolizin-8-yl]methoxy]pyrimidin-4-yl]spiro[4a,5,5a,6-tetrahydrocyclopropa[f]benzothiophene-4,3′-azetidine]-3-carbonitrile] showed an IC50 of 100 to 1000 nM.
`N#Cc1c(N2C[C@H]3CC[C@@H](C2)N3)nc(OCC2(c3ccn[nH]3)CC2)nc1N1CC2(CCc3sc(N)c(C#N)c32)C1` [Compound 98, 2-amino-1′-[5-cyano-6-[(1R,5S)-3,8-diazabicyclo[3.2.1]octan-3-yl]-2-[[1-(1H-pyrazol-5-yl)cyclopropyl]methoxy]pyrimidin-4-yl]spiro[5,6-dihydrocyclopenta[b]thiophene-4,3′-azetidine]-3-carbonitrile] showed an IC50 of 1000 to 10000 nM.
In the case of `N#Cc1c(N2CC3COCC(C2)N3)nc(OC[C@]23CCCN2C[C@@H](F)C3)nc1N1CC2(CCc3sc(N)c(C#N)c32)C1` [Compound 43, 2-amino-1′-[5-cyano-2-[[(2S,8R)-2-fluoro-1,2,3,5,6,7-hexahydropyrrolizin-8-yl]methoxy]-6-(3-oxa-7,9-diazabicyclo[3.3.1]nonan-7-yl)pyrimidin-4-yl]spiro[5,6-dihydrocyclopenta[b]thiophene-4,3′-azetidine]-3-carbonitrile], the IC50 is reported as 1000 to 10000 nM.
Compound `N#Cc1c(N2C[C@H]3CC[C@@H](C2)N3)nc(OC[C@@H]2CCN2CC(F)(F)F)nc1N1CC2(CCc3sc(N)c(C#N)c32)C1` [Compound 92, 2-amino-1′-[5-cyano-6-[(1R,5S)-3,8-diazabicyclo[3.2.1]octan-3-yl]-2-[[(2S)-1-(2,2,2-trifluoroethyl)azetidin-2-yl]methoxy]pyrimidin-4-yl]spiro[5,6-dihydrocyclopenta[b]thiophene-4,3′-azetidine]-3-carbonitrile] has an IC50 of 10000 to 100000 nM.
For `N#Cc1c(N2C[C@H]3CC[C@@H](C2)N3)nc(OCC2(CN3CCOCC3)CC2)nc1N1CC2(CSc3sc(N)c(C#N)c32)C1` [Compound 73, 5-amino-1′-[5-cyano-2-[[1-(morpholinomethyl)cyclopropyl]methoxy]-6-[(1R,5S)-3,8-diazabicyclo[3.2.1]octan-3-yl]pyrimidin-4-yl]spiro[2H-thieno[2,3-b]thiophene-3,3′-azetidine]-4-carbonitrile], the IC50 was 100 to 1000 nM.
With `CN(C)CC1(COc2nc(N3C[C@H]4CC[C@@H](C3)N4)c(C#N)c(N3CC4(CCc5sc(N)c(C#N)c54)C3)n2)CC1(F)F` (mixture of isomers) [Compound 74, 2-amino-1′-[5-cyano-6-(3,8-diazabicyclo[3.2.1]octan-3-yl)-2-[[1-[(dimethylamino)methyl]-2,2-difluoro-cyclopropyl]methoxy]pyrimidin-4-yl]spiro[5,6-dihydrocyclopenta[b]thiophene-4,3′-azetidine]-3-carbonitrile] the IC50 was 10000 to 100000 nM.
In the case of `N#Cc1c(N2C[C@H]3CC[C@@H](C2)N3)nc(OCC2(CN3CCOCC3)CC2)nc1N1CC2(C1)SCc1sc(N)c(C#N)c12` [Compound 100, 2-amino-1′-[5-cyano-6-[(1R,5S)-3,8-diazabicyclo[3.2.1]octan-3-yl]-2-[[1-(morpholinomethyl)cyclopropyl]methoxy]pyrimidin-4-yl]spiro[6H-thieno[2,3-c]thiophene-4,3′-azetidine]-3-carbonitrile], the IC50 is reported as < 100 nM.
In the case of `CN(C)CC1(COc2nc(N3CCCn4nc(C(=O)N(C)C)c(Cl)c4C3)c(C#N)c(N3CC4(CCCc5sc(N)c(C#N)c54)C3)n2)CC1(F)F` (centres unmarked) [Compound 96, 5-[6-(2-amino-3-cyano-spiro[6,7-dihydro-5H-benzothiophene-4,3′-azetidine]-1′-yl)-5-cyano-2-[[1-[(dimethylamino)methyl]-2,2-difluoro-cyclopropyl]methoxy]pyrimidin-4-yl]-3-chloro-N,N-dimethyl-4,6,7,8-tetrahydropyrazolo[1,5-a][1,4]diazepine-2-carboxamide], the IC50 is reported as 1000 to 10000 nM.
With `C[C@@]1(O)CCCN(c2nc(OC[C@@]34CCCN3C[C@H](F)C4)nc(N3CC4(CCc5sc(N)c(C#N)c54)C3)c2C#N)C1` [Compound 27, 2-amino-1′-[5-cyano-2-[[(2R,8S)-2-fluoro-1,2,3,5,6,7-hexahydropyrrolizin-8-yl]methoxy]-6-[(3R)-3-hydroxy-3-methyl-1-piperidyl]pyrimidin-4-yl]spiro[5,6-dihydrocyclopenta[b]thiophene-4,3′-azetidine]-3-carbonitrile] the IC50 was 1000 to 10000 nM.
`N#Cc1c(N2CCCC(O)CC2)nc(OC[C@@]23CCCN2C[C@H](F)C3)nc1N1CC2(CCc3sc(N)c(C#N)c32)C1` (stereo partly drawn) [Compound 40, 2-amino-1′-[5-cyano-6-(4-hydroxyazepan-1-yl)-2-[[(2R,8S)-2-fluoro-1,2,3,5,6,7-hexahydropyrrolizin-8-yl]methoxy]pyrimidin-4-yl]spiro[5,6-dihydrocyclopenta[b]thiophene-4,3′-azetidine]-3-carbonitrile] was tested, and the IC50 was 1000 to 10000 nM.
Compound `N#Cc1c(N2C[C@H]3CC[C@@H](C2)N3)nc(OCC2(CN3CCOCC3)CC2)nc1N1CC2(C1)c1c(sc(N)c1C#N)CC2F` (stereo partly drawn) [Compound 101, 2-amino-1′-[5-cyano-6-[(1R,5S)-3,8-diazabicyclo[3.2.1]octan-3-yl]-2-[[1-(morpholinomethyl)cyclopropyl]methoxy]pyrimidin-4-yl]-5-fluoro-spiro[5,6-dihydrocyclopenta[b]thiophene-4,3′-azetidine]-3-carbonitrile] has an IC50 of 100 to 1000 nM.
For `N#Cc1c(N2C[C@H]3CC[C@@H](C2)N3)nc(OCC2(CN3CC[S+]([O-])CC3)CC2)nc1N1CC2(CCc3sc(N)c(C#N)c32)C1` [Compound 71, 2-amino-1′-[5-cyano-6-[(1R,5S)-3,8-diazabicyclo[3.2.1]octan-3-yl]-2-[[1-[(1-oxo-1,4-thiazinan-4-yl)methyl]cyclopropyl]methoxy]pyrimidin-4-yl]spiro[5,6-dihydrocyclopenta[b]thiophene-4,3′-azetidine]-3-carbonitrile], the IC50 was 1000 to 10000 nM.
Compound `Cc1n[nH]nc1COc1nc(N2C[C@H]3CC[C@@H](C2)N3)c(C#N)c(N2CC3(CCc4sc(N)c(C#N)c43)C2)n1` [Compound 108] has an IC50 of 10000 to 100000 nM.
Compound `N#Cc1c(N2CCCn3nc(-c4ccccn4)c(Cl)c3C2)nc(OCC2(CN3CCOCC3)CC2)nc1N1CC2(CCc3sc(N)c(C#N)c32)C1` [Compound 75, 2-amino-1′-[6-[3-chloro-2-(2-pyridyl)-4,6,7,8-tetrahydropyrazolo[1,5-a][1,4]diazepin-5-yl]-5-cyano-2-[[1-(morpholinomethyl)cyclopropyl]methoxy]pyrimidin-4-yl]spiro[5,6-dihydrocyclopenta[b]thiophene-4,3′-azetidine]-3-carbonitrile] has an IC50 of 100 to 1000 nM.
`N#Cc1c(N2C[C@H]3CC[C@@H](C2)N3)nc(OCc2ccccc2)nc1N1CC2(CCc3sc(N)c(C#N)c32)C1` [Compound 76, 2-amino-1′-[2-benzyloxy-5-cyano-6-[(1R,5S)-3,8-diazabicyclo[3.2.1]octan-3-yl]pyrimidin-4-yl]spiro[5,6-dihydrocyclopenta[b]thiophene-4,3′-azetidine]-3-carbonitrile] gave an IC50 of 100 to 1000 nM.
With `C=C1CN2CCCC2(COc2nc(N3CCCn4nc(C(=O)N(C)C)c(Cl)c4C3)c(C#N)c(N3CC4(CCc5sc(N)c(C#N)c54)C3)n2)C1` (centres unmarked) [Compound 93, 5-[6-(2-amino-3-cyano-spiro[5,6-dihydrocyclopenta[b]thiophene-4,3′-azetidine]-1′-yl)-5-cyano-2-[(6-methylene-2,3,5,7-tetrahydro-1H-pyrrolizin-8-yl)methoxy]pyrimidin-4-yl]-3-chloro-N,N-dimethyl-4,6,7,8-tetrahydropyrazolo[1,5-a][1,4]diazepine-2-carboxamide] the IC50 was 100 to 1000 nM.
In the case of `C=C1CN2CCCC2(COc2nc(N3C[C@H]4CC[C@@H](C3)N4)c(C#N)c(N3CC4(CCc5sc(N)c(C#N)c54)C3)n2)C1` (stereo partly drawn) [Compound 94, 2-amino-1′-[5-cyano-2-[(6-methylene-2,3,5,7-tetrahydro-1H-pyrrolizin-8-yl)methoxy]-6-[(1R,5S)-3,8-diazabicyclo[3.2.1]octan-3-yl]pyrimidin-4-yl]spiro[5,6-dihydrocyclopenta[b]thiophene-4,3′-azetidine]-3-carbonitrile], the IC50 is reported as < 100 nM.
With `N#Cc1c(N2CCCC(=O)CC2)nc(OC[C@@]23CCCN2C[C@H](F)C3)nc1N1CC2(CCc3sc(N)c(C#N)c32)C1` [Compound 49, 2-amino-1′-[5-cyano-2-[[(2R,8S)-2-fluoro-1,2,3,5,6,7-hexahydropyrrolizin-8-yl]methoxy]-6-(4-oxoazepan-1-yl)pyrimidin-4-yl]spiro[5,6-dihydrocyclopenta[b]thiophene-4,3′-azetidine]-3-carbonitrile] the IC50 was 10000 to 100000 nM.

Same assay, conditions: Table 4, listed as 74.2
Compound `CN(C)CC1(COc2nc(N3CC4CCC(C3)N4)c(C#N)c(N3CC4(CCc5sc(N)c(C#N)c54)C3)n2)CC1(F)F` (centres unmarked) [Compound 74B, 2-amino-1′-[5-cyano-6-(3,8-diazabicyclo[3.2.1]octan-3-yl)-2-[[(1*)-1-[(dimethylamino)methyl]-2,2-difluoro-cyclopropyl]methoxy]pyrimidin-4-yl]spiro[5,6-dihydrocyclopenta[b]thiophene-4,3′-azetidine]-3-carbonitrile] has an IC50 of 10000 to 100000 nM.
